Measurements from patent US6794386B2, “β-amino acid compounds as integrin antagonists” (Bayer Aktiengesellschaft, priority 2000, dated 2004).
Read-outs that look alike come from different tables or passages of the source.

Target: T1, VLA-4 (Homo sapiens, UniProt P05556+P13612)
T1 construct: host or cells: Jurkat clone E6-1
Test: Adhesion of Jurkat cells to immobilized VCAM-1 (domains 1-3)
Type: cell-based
Set-up: scale not given here
Conditions: adhesion of CFSE-labeled Jurkat cells to recombinant human VCAM-1 (domains 1-3) coated plates, compounds as yielded by solid phase synthesis, purity about 40-90%
Description: In Vitro Assay: Adhesion of Jurkat Cells to Immobilized VCAM-1 (Domains 1-3).
Preparation of Fluorescence Labeled Jurkat Cells:
Jurkat cells (American Type Culture Collection, Clone E6-1, ATCC TIB-152) were cultured in RPMI 1640 medium (Nikken Bio Medical Laboratory, CM1101) supplemented with 10% fetal bovine serum (Hyclone, A-1119-L), 100 U/ml penicilin (Gibco BRL, 15140-122) and 100 μg/ml streptomycin (Gibco BRL, 15140-122) in a humidified incubator at 37° C. with 5% CO2.
Jurkat cells were incubated with phosphate balanced solution (PBS, Nissui, 05913) containing 25 μM of 5(-and-6)-carboxyfluorescein diacetate, succinimidyle ester (CFSE, Dojindo Laboratories, 345-06441) for 20 min at room temperature while gently swirling every 5 min. After centrifugation at 1000 rpm for 5 min, the cell pellet was resuspended with adhesion assay buffer at a cell density of 2×10^6 cells/ml. The adhesion assay buffer was composed of 24 mM Tris-HCl (pH 7.4), 137 mM NaCl, 27 mM KCl, 4 mM glucose, 0.1% bovine serum albumin (BSA, Sigma, A9647) and 2 mM MnCl2.
Preparation of VCAM-1 (Extracellular Domains 1-3):
Complementary DNA (cDNA) encoding 7-domain form of VCAM-1 (GenBank accession #M60335) was obtained using Rapid-Screen™ cDNA library panels (OriGene Technologies, Inc) at Takara Gene Analysis Center (Shiga, Japan). The primers used were 5′-CCAAGGCAGAGTACGCAAAC-3′ (sence) and 5′-TGGCAGGTATTATTAAGGAG-3′ (antisense). PCR amplification of the 3-domain VCAM-1 cDNA was perform using Pfu DNA polymerase (Stratagene) with the following sets of primers: (U-VCAMd1-3) 5′-CCATATGGTACCTGATCAATTTAAAATCGAGACCACCCCAGAA-3′; (L-VCAMd1-3) 5′-CCATATAGCAATCCTAGGTCCAGGGGAGATCTCAACAGTAAA-3′. PCR cycle was 94° C. for 45 sec, 55° C. for 45 sec, 72° C. for 2 min, repeating 15 cycles. After the purification of the PCR product, the fragment was digested with KpnI-AvrII. The digested fragment was ligated into pBluescript IISK(−) (Strategene), which was linealized by digesting with KpnI-XhoI. The ligation was followed by transformation to a Dam/Dcm methylase-free E. coli strain SCS110 (Strategene) to create the donor plasmid pH7. To direct VCAM-1 molecule into the insect cell secretory pathway, the VCAM-1 coding sequence was fused to signal peptide sequence of honeybee melittin. The resulting melittin-VCAM fusion was placed in correct orientation to the baculoviris polyhedrin promoter. Baculovirus transfer vector containing first 3-domain form VCAM-1 (pH10) was constructed by ligation of 0.9 kb fragment from AvrII/Klenow/BclI digests of pH7 into SalI/Klenow/BamHI digests of pMelBacB (Invitrogen). Recombinant baculovirus was generated by using Bac-N-Blue™ Transfection kit (Invitrogen) according to the manufacture's instruction. The recombinant virus was amplified by infection to High-Five™ insect cells for 5-6 days, and virus titer was determined by plaque assay.
High-Five™ insect cells were pelleted in a 225 ml conical tube by centrifugation at 1000 rpm for 5 min After discarding the supernatant, the pellet was resuspended in 1.5×10^9 pfu (MOI=5) of high-titer virus solution, followed by incubation for 1.5 hours at room temperature. The cells were pelleted again and washed once in fresh Express Five™ serum free medium. The cells were pelleted again and finally, resuspended in 200 ml of fresh Express Five™ medium, transferred to a 1,000 ml shaker flask, and incubated in a shaker at 27° C., 130 rpm, for 48 hours before the culture supernatant was collected. The purification of 3-domain form of VCAM-1 from the culture supernatant was performed by one-step anion exchange chromatography. Protein concentration was determined by using Coomassie protein assay reagent (Pierce) according to the manufacture's instruction.
Preparation of Microtiter Plates:
Recombinant human VCAM-1 (extracellular domains 1-3) was dissolved at 0.5 μg/ml in PBS. […]

T1 sequence (P13612 34-1032): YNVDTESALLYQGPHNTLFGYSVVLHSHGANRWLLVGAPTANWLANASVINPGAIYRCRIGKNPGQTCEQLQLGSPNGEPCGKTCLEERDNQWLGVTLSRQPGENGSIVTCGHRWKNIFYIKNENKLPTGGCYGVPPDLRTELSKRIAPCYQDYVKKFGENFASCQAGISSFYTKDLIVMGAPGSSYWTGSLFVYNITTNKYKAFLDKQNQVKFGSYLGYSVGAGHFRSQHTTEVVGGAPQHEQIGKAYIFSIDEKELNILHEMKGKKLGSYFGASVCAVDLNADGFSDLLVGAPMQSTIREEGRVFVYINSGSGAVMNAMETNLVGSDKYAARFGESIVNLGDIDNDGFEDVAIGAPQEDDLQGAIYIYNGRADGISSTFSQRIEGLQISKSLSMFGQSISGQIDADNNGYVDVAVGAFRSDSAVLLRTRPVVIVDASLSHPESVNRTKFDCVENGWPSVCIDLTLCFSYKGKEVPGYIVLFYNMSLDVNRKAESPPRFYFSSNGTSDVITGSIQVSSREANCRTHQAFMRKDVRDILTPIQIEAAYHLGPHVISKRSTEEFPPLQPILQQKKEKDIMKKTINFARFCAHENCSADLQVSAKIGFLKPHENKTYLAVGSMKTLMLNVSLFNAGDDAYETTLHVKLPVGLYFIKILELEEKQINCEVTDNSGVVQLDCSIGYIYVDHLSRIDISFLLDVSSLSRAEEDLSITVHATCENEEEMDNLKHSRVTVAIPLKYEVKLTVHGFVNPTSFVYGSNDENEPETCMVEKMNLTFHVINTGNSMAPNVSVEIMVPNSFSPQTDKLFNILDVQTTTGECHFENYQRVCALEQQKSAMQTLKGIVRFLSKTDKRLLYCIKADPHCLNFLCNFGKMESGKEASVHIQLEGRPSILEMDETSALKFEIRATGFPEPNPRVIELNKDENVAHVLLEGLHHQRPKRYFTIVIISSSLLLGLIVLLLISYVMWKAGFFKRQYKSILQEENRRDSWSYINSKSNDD
T1 sequence (P05556 21-798): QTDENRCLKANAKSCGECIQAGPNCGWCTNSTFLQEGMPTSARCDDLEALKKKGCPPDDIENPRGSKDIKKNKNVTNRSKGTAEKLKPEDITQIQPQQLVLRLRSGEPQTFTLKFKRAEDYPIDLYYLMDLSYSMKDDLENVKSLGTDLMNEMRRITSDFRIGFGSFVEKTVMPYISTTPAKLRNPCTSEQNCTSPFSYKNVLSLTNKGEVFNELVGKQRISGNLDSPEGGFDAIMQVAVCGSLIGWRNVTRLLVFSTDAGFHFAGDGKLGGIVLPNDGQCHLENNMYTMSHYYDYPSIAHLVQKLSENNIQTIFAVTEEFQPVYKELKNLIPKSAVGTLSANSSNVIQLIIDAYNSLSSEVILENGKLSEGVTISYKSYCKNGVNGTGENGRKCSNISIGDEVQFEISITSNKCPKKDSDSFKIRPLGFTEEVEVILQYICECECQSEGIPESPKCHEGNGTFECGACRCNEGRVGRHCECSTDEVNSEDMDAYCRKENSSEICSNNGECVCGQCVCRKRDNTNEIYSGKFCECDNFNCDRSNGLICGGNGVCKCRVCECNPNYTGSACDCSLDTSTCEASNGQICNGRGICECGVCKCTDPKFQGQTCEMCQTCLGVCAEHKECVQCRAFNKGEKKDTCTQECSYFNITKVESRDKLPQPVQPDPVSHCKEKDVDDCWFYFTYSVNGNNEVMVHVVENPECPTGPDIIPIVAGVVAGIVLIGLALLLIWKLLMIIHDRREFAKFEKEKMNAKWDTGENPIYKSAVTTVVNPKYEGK

| Compound | IC50 | IC50 (read-out: IC50) |
| --- | --- | --- |
| COc1ccc(-c2ccc(C[C@H](NC(=O)C3CCCN(c4ncnc(N(C)Cc5ccccc5)c4F)C3)C(=O)O)cc2)cc1 (some centres unmarked) [Example 2.18] | C-D |  |
| O=C(N[C@@H](Cc1ccc(NC(=O)N2CCOCC2)cc1)C(=O)O)C1CCCN(C(=O)Nc2ccccc2F)C1 (some centres unmarked) [Example 4.61] |  | 500 to 2000 nM |
| COc1ccc(-c2ccc(C[C@H](NC(=O)C3CCCN(S(=O)(=O)CC45CCC(CC4=O)C5(C)C)C3)C(=O)O)cc2)cc1 (some centres unmarked) [Example 1.75] | C-D |  |
| Cc1ccc(-c2ccc(C[C@H](NC(=O)C3CCCN(S(=O)(=O)Cc4ccccc4)C3)C(=O)O)cc2)cc1 (some centres unmarked) [Example 1.73] | C-D |  |
| COc1ccccc1C(=O)N1CCCC(C(=O)N[C@@H](Cc2ccc(-c3ccccc3C)cc2)C(=O)O)C1 (some centres unmarked) [Example 1.37] |  | 500 to 2000 nM |
| Cc1ccc(-c2ccc(C[C@H](NC(=O)C3CCCN(c4ncnc(N5CCNCC5)c4F)C3)C(=O)O)cc2)cc1 (some centres unmarked) [Example 2.9] | B-C |  |
| COc1ccccc1-c1ccc(C[C@H](NC(=O)C2CCCN(c3ncnc(NC4Cc5ccccc5C4)c3F)C2)C(=O)O)cc1 (some centres unmarked) [Example 2.56] | B-C |  |
| CCCNc1ncnc(N2CCCC(C(=O)N[C@@H](Cc3ccc(-c4ccc(OC)cc4)cc3)C(=O)O)C2)c1F (some centres unmarked) [Example 2.20] | C-D |  |
| O=C(N[C@@H](Cc1ccc(NC(=O)N2CCOCC2)cc1)C(=O)O)C1CCCN(C(=O)Cc2ccccc2)C1 (some centres unmarked) [Example 4.21] |  | 500 to 2000 nM |
| Cc1ccc(C(=O)N2CCCC(C(=O)N[C@@H](Cc3ccc(-c4ccccc4C)cc3)C(=O)O)C2)cc1 (some centres unmarked) [Example 1.32] |  | 2000 to 10000 nM |
| COc1ccc(-c2ccc(C[C@H](NC(=O)C3CCCN(S(=O)(=O)c4ccccc4C(F)(F)F)C3)C(=O)O)cc2)cc1 (some centres unmarked) [Example 1.80] | C-D |  |
| COC(=O)c1ccccc1S(=O)(=O)N1CCCC(C(=O)N[C@@H](Cc2ccc(-c3cc(Cl)ccc3Cl)cc2)C(=O)O)C1 (some centres unmarked) [Example 1.105] | C-D |  |
| O=C(N[C@@H](Cc1ccc(-c2cc(Cl)ccc2Cl)cc1)C(=O)O)C1CCCN(C(=O)c2ccc3c(c2)OCO3)C1 (some centres unmarked) [Example 1.52] | C-D |  |
| CN1CCN(C(=O)Nc2ccc(C[C@H](NC(=O)C3CCCN(C(=O)Nc4ccccc4F)C3)C(=O)O)cc2)CC1 (some centres unmarked) [Example 4.57] |  | 500 to 2000 nM |
| O=C(N[C@@H](Cc1ccc(NC(=O)N2CCOCC2)cc1)C(=O)O)C1CCCN(c2ncnc(N3CCCCCC3)c2F)C1 (some centres unmarked) [Example 5.21] |  | 500 to 2000 nM |
| CN1CCN(C(=O)Nc2ccc(C[C@H](NC(=O)C3CCCN(c4ncnc(NCC5CCCCC5)c4F)C3)C(=O)O)cc2)CC1 (some centres unmarked) [Example 5.33] |  | 2000 to 10000 nM |
| COc1ccc(S(=O)(=O)N2CCCC(C(=O)N[C@@H](Cc3ccc(-c4cc(Cl)ccc4Cl)cc3)C(=O)O)C2)cc1OC (some centres unmarked) [Example 1.108] | C-D |  |
| CN(c1ncnc(N2CCCC(C(=O)N[C@@H](Cc3ccc(NC(=O)N4CCOCC4)cc3)C(=O)O)C2)c1F)C1CCCCC1 (some centres unmarked) [Example 5.36] |  | 500 to 2000 nM |
| O=C(N[C@@H](Cc1ccc(NC(=O)N2CCOCC2)cc1)C(=O)O)C1CCCN(c2ncnc(NCc3ccccn3)c2F)C1 (some centres unmarked) [Example 5.47] |  | 500 to 2000 nM |
| COc1ccccc1-c1ccc(C[C@H](NC(=O)C2CCCN(c3ncnc(N4CCOCC4)c3F)C2)C(=O)O)cc1 (some centres unmarked) [Example 2.53] |  | 2000 to 10000 nM |
| CN1CCN(C(=O)Nc2ccc(C[C@H](NC(=O)C3CCCN(c4ncnc(N5CCN(c6ccccc6)CC5)c4F)C3)C(=O)O)cc2)CC1 (some centres unmarked) [Example 5.14] |  | 2000 to 10000 nM |
| O=C(N[C@@H](Cc1ccc(-c2ccc(Cl)cc2Cl)cc1)C(=O)O)C1CCCN(S(=O)(=O)c2c(Cl)cccc2Cl)C1 (some centres unmarked) [Example 1.97] |  | 2000 to 10000 nM |

| Compound | IC50 | IC50 (read-out: IC50) |
| --- | --- | --- |
| CN1CCN(C(=O)Nc2ccc(C[C@H](NC(=O)C3CCCN(S(C)(=O)=O)C3)C(=O)O)cc2)CC1 (some centres unmarked) [Example 4.5] |  | 500 to 2000 nM |
| O=C(N[C@@H](Cc1ccc(NC(=O)N2CCOCC2)cc1)C(=O)O)C1CCCN(C(=O)c2ccc(OC(F)(F)F)cc2)C1 (some centres unmarked) [Example 4.13] |  | 500 to 2000 nM |
| O=C(N[C@@H](Cc1ccc(-c2cc(Cl)ccc2Cl)cc1)C(=O)O)C1CCCN(S(=O)(=O)Cc2ccccc2)C1 (some centres unmarked) [Example 1.6] |  | ≤ 500 nM |
| O=C(N[C@@H](Cc1ccc(-c2ccccc2)cc1)C(=O)O)C1CCCN(S(=O)(=O)c2c(Cl)cccc2Cl)C1 (some centres unmarked) [Example 1.59] | C-D |  |
| Cc1ccc(-c2ccc(C[C@H](NC(=O)C3CCCN(C(=O)c4cccc(Cl)c4)C3)C(=O)O)cc2)cc1 (some centres unmarked) [Example 1.18] | C-D |  |
| CN(C)CCNc1ncnc(N2CCCC(C(=O)N[C@H](Cc3ccc(NC(=O)N4CCN(C)CC4)cc3)C(=O)O)C2)c1F (some centres unmarked) [Example 5.5] |  | 2000 to 10000 nM |
| O=C(N[C@@H](Cc1ccc(-c2cc(Cl)ccc2Cl)cc1)C(=O)O)C1CCCN(C(=O)c2cccc(Cl)c2)C1 (some centres unmarked) [Example 1.50] |  | 2000 to 10000 nM |
| CN1CCN(C(=O)Nc2ccc(C[C@H](NC(=O)C3CCCN(C(=O)c4ccc(OC(F)(F)F)cc4)C3)C(=O)O)cc2)CC1 (some centres unmarked) [Example 4.3] |  | 500 to 2000 nM |
| COC(=O)c1ccccc1S(=O)(=O)N1CCCC(C(=O)N[C@@H](Cc2ccc(-c3ccccc3C)cc2)C(=O)O)C1 (some centres unmarked) [Example 1.86] |  | 2000 to 10000 nM |
| COC(=O)c1ccccc1S(=O)(=O)N1CCCC(C(=O)N[C@@H](Cc2ccc(-c3ccc(C)cc3)cc2)C(=O)O)C1 (some centres unmarked) [Example 1.67] | C-D |  |
| O=C(N[C@@H](Cc1ccc(NC(=O)N2CCCCC2)cc1)C(=O)O)C1CCCN(S(=O)(=O)Cc2ccccc2)C1 (some centres unmarked) [Example 4.7] |  | 500 to 2000 nM |
| COc1ccc(S(=O)(=O)N2CCCC(C(=O)NC(Cc3ccc(NC(=O)N4CCc5ccccc5C4)cc3)C(=O)O)C2)cc1OC (centres unmarked) [Example 4.48] |  | ≤ 500 nM |
| COc1ccccc1-c1ccc(C[C@H](NC(=O)C2CCCN(c3ncnc(N4CCNCC4)c3F)C2)C(=O)O)cc1 (some centres unmarked) [Example 2.54] |  | ≤ 500 nM |
| Cc1ccccc1-c1ccc(C[C@H](NC(=O)C2CCCN(S(=O)(=O)c3cc(Cl)cc(Cl)c3)C2)C(=O)O)cc1 (some centres unmarked) [Example 1.92] | C-D |  |
| Cc1ccccc1-c1ccc(C[C@H](NC(=O)C2CCCN(C(=O)Cc3ccccc3)C2)C(=O)O)cc1 (some centres unmarked) [Example 1.30] | C-D |  |
| COc1ccc(OC(=O)N2CCCC(C(=O)N[C@@H](Cc3ccc(NC(=O)N4CCN(c5ccccc5)CC4)cc3)C(=O)O)C2)cc1 (some centres unmarked) [Example 4.19] |  | 2000 to 10000 nM |
| CCCCN(C)c1ncnc(N2CCCC(C(=O)N[C@@H](Cc3ccc(-c4ccc(Cl)c(Cl)c4)cc3)C(=O)O)C2)c1F (some centres unmarked) [Example 2.50] | C-D |  |
| Cc1ccc(-c2ccc(C[C@H](NC(=O)C3CCCN(c4ncnc(NCc5ccccn5)c4F)C3)C(=O)O)cc2)cc1 (some centres unmarked) [Example 2.4] |  | 2000 to 10000 nM |
| Cc1ccc(C(=O)N2CCCC(C(=O)N[C@@H](Cc3ccc(-c4ccc(C)cc4)cc3)C(=O)O)C2)cc1 (some centres unmarked) [Example 1.19] | C-D |  |
| CCCNc1ncnc(N2CCCC(C(=O)N[C@@H](Cc3ccc(-c4ccccc4C)cc3)C(=O)O)C2)c1F (some centres unmarked) [Example 2.30] |  | 2000 to 10000 nM |
| Cc1ccc(-c2ccc(C[C@H](NC(=O)C3CCCN(C(=O)Cc4ccccc4)C3)C(=O)O)cc2)cc1 (some centres unmarked) [Example 1.17] | C-D |  |
| COc1ccc(S(=O)(=O)N2CCCC(C(=O)N[C@@H](Cc3ccc(-c4ccc(C)cc4)cc3)C(=O)O)C2)cc1OC (some centres unmarked) [Example 1.70] | C-D |  |
